From article PMC8746632, “Design and Synthesis of New Thiophene/Thieno[2,3-d]pyrimidines along with Their Cytotoxic Biological Evaluation as Tyrosine Kinase Inhibitors in Addition to Their Apoptotic and Autophagic Induction” (Molecules, 2021)

Target: T1, FLT3 kinase (Fms-like tyrosine kinase 3) (Homo sapiens, UniProt P36888)
T1 sequence (P36888 27-993): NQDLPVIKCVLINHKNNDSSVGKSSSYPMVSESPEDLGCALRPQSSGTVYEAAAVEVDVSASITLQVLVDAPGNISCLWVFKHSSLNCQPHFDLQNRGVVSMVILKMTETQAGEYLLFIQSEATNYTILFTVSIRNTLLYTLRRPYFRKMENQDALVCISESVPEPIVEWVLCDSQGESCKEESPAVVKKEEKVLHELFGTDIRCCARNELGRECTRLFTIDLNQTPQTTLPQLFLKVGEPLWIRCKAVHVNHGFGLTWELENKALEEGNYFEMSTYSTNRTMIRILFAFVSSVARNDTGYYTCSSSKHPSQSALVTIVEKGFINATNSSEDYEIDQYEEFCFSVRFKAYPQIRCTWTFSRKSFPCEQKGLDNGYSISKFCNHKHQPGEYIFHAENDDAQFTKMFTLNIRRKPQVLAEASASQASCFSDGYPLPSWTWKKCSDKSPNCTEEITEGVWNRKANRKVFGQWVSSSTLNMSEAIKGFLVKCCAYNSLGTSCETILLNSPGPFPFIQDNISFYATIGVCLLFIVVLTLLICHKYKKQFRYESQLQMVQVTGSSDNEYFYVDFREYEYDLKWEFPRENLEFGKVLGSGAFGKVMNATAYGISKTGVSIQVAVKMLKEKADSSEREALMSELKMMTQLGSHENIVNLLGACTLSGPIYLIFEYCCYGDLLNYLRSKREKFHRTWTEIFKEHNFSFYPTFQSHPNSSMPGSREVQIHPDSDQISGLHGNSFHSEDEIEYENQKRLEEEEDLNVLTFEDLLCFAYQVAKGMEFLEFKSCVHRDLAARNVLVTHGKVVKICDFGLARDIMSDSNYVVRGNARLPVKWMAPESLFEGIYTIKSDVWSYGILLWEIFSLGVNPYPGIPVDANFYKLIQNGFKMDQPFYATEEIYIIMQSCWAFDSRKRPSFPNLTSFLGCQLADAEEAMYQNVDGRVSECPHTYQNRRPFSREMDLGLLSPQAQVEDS
Experiment: FLT3 Kinase Assay Kit, ADP production, luminescence, dose response
Format: biochemical

| IC50 [µM] | SMILES |
| --- | --- |
| 39.6 ± 4.6 | CC(C)(C)c1cc(Nc2ncnc3sc4c(c23)CCCC4)on1 [9b, N-(3-tert-butylisoxazol-5-yl)-5,6,7,8-tetrahydrobenzo[4,5]thieno[2,3-d]pyrimidin-4-amine] |
| 32.4 ± 5.5 | O=C(CCl)NNc1ncnc2sc3c(c12)CCCC3 [compound 5, 2-Chloro-N′-(5,6,7,8,tetrahydrobenzo[4,5]thieno[2,3-d]pyrimidin-4-yl)acetohydrazide] |
| 40.5 ± 6.3 | CC1=CC(=O)N(Nc2ncnc3sc4c(c23)CCCC4)C1=O [compound 8, 3-Methyl-1-(5,6,7,8-tetrahydrobenzo[4,5]thieno[2,3-d]pyrimidin-4-ylamino)-1H-pyrrole-2,5-dione] |
| 40 ± 5.5 | CCOC(=O)c1c(NC(=O)CCl)sc2c1CCCC2 [compound 10, 10] |
